According to patent publication US4626535A, “Cephalosporins” (Bayer Aktiengesellschaft, priority 1983, dated 1986):
Values after ≈ are worked out from the molar mass of the structure shown.

How the values were obtained:
Experiment in all cases: in vitro MIC comparison in Isosensitest agar
Format in all cases: cell-based
[1] = system: Staph. E; conditions: Staphylococcus
Source text: (§1) The compound of Example 21 was compared in vitro with Cefotaxim (MIC-comparison in Isosensitest agar): […]

[2] = system: Psdm. 7035; conditions: Pseudomonas
Source text: as §1

[3] = system: Staph. 1756; conditions: Staphylococcus
Source text: as §1

[4] = system: Enterobacter Cloacae 56US; conditions: CLOACAE56US
Source text: as §1

[5] = system: Staph. 133; conditions: Staphylococcus
Source text: as §1

[6] = system: Staph. 25470; conditions: Staphylococcus
Source text: as §1

[7] = system: Psdm. Walter; conditions: Pseudomonas
Source text: as §1

`CO/N=C(\C(=O)N[C@@H]1C(=O)N2C(C(=O)O)=C(COC(C)=O)CS[C@H]12)c1csc(N)n1` [Cefotaxim] was tested, and the MIC [1] was 0.5 µg/mL (≈ 1.1 µM), the MIC [2] was 16 µg/mL (≈ 35.1 µM) and the MIC [3] was 128 µg/mL (≈ 281 µM). For the same compound, the MIC [4] was greater than 128 µg/mL, the MIC [5] was 1 µg/mL (≈ 2.2 µM) and the MIC [6] was greater than 128 µg/mL. It also gave an MIC [7] of 16 µg/mL (≈ 35.1 µM).
Work on `C/C=C(\C(=O)NC1C(=O)N2C(C(=O)[O-])=C(C[n+]3ccccc3)CSC12)c1nsc(N)n1` (centres unmarked) [Example 21, 7-(1-(5-Amino-1,2,4-thiadiazol-3-yl)-1(Z)-propenecarboxamido)-3-pyridiniummethyl-3-cephem-4-carboxylate] yielded an MIC [1] of 0.125 µg/mL (≈ 0.273 µM), an MIC [2] of 8 µg/mL (≈ 17.4 µM) and an MIC [3] of 8 µg/mL (≈ 17.4 µM). It also gave an MIC [4] of 64 µg/mL (≈ 140 µM), an MIC [5] of 0.5 µg/mL (≈ 1.09 µM) and an MIC [6] of 8 µg/mL (≈ 17.4 µM). For the same compound, the MIC [7] was 8 to 16 µg/mL (≈ 17.4 to 34.9 µM).
